From PMC10528299, “Targeting FAK/PYK2 with SJP1602 for Anti-Tumor Activity in Triple-Negative Breast Cancer” (Current Issues in Molecular Biology, 2023)

Assays:
Experiment in all cases: Eurofins kinase profiling
Type in all cases: biochemical
Blk(h) = biological target: T1, Blk(h) (Homo sapiens, UniProt P51451); conditions: read-out: residual kinase activity Blk(h)
T1 construct: purchased Eurofins KinaseProfiler
Outline: (§1)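 At a fixed 1 µM, the compound was profiled against each kinase, whose activity was quantified through radiolabeled phosphate incorporation.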

Tie2 (h) = biological target: T2, Tie2 (h) (Homo sapiens, UniProt Q02763); conditions: read-out: residual kinase activity Tie2 (h)
T2 construct: purchased Eurofins KinaseProfiler
Outline: as §1

IGF-1R(h) = biological target: T3, IGF-1R(h) (Homo sapiens, UniProt P08069); conditions: read-out: residual kinase activity IGF-1R(h)
T3 construct: purchased Eurofins KinaseProfiler
Outline: as §1

cKit(h) = biological target: T4, cKit(h) (Homo sapiens, UniProt P10721); conditions: read-out: residual kinase activity cKit(h)
T4 construct: purchased Eurofins KinaseProfiler
T4 sequence (P10721 26-976): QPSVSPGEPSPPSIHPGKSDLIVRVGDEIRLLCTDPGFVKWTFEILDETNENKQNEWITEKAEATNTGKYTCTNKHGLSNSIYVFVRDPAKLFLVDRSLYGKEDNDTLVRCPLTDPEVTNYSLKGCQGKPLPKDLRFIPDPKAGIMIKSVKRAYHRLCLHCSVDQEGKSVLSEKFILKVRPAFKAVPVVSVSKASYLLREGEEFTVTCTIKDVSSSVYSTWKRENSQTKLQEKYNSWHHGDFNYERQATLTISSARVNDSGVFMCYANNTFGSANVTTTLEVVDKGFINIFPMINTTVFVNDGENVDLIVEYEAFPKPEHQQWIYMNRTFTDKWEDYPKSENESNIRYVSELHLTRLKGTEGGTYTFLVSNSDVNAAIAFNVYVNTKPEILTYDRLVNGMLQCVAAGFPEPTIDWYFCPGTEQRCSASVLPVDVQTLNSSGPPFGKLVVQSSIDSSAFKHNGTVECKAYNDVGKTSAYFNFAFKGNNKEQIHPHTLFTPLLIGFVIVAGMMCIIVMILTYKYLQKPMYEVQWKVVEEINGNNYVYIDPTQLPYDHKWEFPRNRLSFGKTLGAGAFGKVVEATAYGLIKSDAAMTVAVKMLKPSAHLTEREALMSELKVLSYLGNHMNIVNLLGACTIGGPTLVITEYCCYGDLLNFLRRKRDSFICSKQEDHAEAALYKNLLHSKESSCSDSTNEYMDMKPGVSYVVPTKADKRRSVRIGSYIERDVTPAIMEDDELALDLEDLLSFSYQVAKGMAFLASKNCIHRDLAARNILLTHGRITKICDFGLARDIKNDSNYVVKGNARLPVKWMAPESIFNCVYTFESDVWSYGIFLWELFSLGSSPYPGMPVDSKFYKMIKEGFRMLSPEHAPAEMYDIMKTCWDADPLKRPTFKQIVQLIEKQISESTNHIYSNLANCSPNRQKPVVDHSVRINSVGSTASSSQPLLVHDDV
Outline: as §1

Abl(T315I)(h) = biological target: T5, Abl(T315I)(h) (Homo sapiens, UniProt P00519, T315I); conditions: read-out: residual kinase activity Abl(T315I)(h)
T5 construct: purchased Eurofins KinaseProfiler
Outline: as §1

PAK1(h) = biological target: T6, PAK1(h) (Homo sapiens, UniProt Q13153); conditions: read-out: residual kinase activity PAK1(h)
T6 construct: purchased Eurofins KinaseProfiler
T6 sequence (Q13153 whole entry): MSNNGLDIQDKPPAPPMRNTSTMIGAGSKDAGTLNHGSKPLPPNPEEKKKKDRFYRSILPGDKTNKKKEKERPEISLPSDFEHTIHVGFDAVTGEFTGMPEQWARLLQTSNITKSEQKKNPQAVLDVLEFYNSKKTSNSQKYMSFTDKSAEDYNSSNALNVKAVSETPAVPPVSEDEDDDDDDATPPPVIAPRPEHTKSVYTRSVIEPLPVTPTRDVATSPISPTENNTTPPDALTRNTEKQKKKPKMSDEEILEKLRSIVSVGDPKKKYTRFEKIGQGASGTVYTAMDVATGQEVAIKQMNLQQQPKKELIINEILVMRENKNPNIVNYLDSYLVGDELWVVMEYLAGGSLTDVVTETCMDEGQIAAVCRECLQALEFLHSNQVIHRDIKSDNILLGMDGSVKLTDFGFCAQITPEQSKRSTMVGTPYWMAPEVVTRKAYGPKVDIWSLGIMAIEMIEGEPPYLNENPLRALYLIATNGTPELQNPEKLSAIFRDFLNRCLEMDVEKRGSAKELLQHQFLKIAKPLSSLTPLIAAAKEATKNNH
Outline: as §1

NIM1(h) = biological target: T7, NIM1(h) (Homo sapiens, UniProt Q8IY84); conditions: read-out: residual kinase activity NIM1(h)
T7 construct: purchased Eurofins KinaseProfiler
T7 sequence (Q8IY84 whole entry): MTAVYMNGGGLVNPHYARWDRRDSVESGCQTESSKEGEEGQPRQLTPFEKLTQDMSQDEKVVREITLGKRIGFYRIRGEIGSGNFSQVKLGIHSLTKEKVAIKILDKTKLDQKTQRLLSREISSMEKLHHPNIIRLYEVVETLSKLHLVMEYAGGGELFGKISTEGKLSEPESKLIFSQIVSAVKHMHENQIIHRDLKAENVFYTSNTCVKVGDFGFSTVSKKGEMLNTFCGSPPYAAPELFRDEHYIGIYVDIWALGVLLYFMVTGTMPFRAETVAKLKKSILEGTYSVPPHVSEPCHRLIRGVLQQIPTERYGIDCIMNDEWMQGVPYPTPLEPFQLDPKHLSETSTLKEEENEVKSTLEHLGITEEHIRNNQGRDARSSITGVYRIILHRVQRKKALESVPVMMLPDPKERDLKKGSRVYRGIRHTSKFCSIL
Outline: as §1

cSRC(h) = biological target: T8, cSRC(h) (Homo sapiens, UniProt P12931); conditions: read-out: residual kinase activity cSRC(h)
T8 construct: purchased Eurofins KinaseProfiler
T8 sequence (P12931 whole entry): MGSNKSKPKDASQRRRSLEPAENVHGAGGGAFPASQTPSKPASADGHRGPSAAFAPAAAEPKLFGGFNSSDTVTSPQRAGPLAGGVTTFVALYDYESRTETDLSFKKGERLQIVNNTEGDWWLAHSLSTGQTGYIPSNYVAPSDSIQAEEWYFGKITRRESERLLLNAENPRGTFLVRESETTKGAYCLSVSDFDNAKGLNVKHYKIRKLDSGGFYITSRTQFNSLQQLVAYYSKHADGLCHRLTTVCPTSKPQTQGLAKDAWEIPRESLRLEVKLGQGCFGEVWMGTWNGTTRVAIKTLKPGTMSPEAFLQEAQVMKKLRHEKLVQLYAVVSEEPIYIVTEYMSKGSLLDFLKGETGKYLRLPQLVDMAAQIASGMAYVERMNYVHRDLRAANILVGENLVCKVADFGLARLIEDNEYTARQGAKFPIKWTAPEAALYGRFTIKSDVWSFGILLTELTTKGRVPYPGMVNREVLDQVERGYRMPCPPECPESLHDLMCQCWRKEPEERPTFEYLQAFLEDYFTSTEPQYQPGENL
Outline: as §1

[1] = biological target: T9, PI3 Kinase (p110a/p85a)(h) (Homo sapiens, UniProt P42336); conditions: read-out: residual kinase activity PI3 Kinase (p110a/p85a)(h)
T9 construct: purchased Eurofins KinaseProfiler
Outline: as §1

Fms(h) = biological target: T10, Fms(h) (Homo sapiens, UniProt P07333); conditions: read-out: residual kinase activity Fms(h)
T10 construct: purchased Eurofins KinaseProfiler
T10 sequence (P07333 20-972): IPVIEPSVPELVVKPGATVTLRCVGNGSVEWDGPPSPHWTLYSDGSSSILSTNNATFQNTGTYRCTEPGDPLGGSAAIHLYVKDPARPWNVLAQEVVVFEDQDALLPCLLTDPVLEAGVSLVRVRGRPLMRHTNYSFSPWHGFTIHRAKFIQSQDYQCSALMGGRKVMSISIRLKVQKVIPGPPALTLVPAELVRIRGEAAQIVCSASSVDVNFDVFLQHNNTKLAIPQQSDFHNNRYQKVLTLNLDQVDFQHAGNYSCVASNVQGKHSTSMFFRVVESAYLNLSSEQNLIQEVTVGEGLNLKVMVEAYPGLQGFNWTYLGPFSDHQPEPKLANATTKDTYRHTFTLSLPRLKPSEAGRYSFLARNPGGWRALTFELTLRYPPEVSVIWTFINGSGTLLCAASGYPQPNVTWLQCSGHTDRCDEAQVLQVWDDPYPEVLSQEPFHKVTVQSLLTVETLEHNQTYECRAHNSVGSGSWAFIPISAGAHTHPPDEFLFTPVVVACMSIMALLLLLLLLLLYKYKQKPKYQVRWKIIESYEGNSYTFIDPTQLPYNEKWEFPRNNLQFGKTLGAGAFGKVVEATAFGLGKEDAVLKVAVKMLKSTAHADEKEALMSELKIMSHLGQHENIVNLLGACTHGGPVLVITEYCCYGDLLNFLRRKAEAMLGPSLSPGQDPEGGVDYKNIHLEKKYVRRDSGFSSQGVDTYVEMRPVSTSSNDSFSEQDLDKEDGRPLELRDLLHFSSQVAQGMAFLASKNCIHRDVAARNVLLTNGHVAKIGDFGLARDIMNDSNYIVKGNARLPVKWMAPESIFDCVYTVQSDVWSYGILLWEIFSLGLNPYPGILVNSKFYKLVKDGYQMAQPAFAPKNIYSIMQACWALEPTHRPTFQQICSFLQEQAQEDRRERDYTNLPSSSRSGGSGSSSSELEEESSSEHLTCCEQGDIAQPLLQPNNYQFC
Outline: as §1

Bmx(h) = biological target: T11, Bmx(h) (Homo sapiens, UniProt P51813); conditions: read-out: residual kinase activity Bmx(h)
T11 construct: purchased Eurofins KinaseProfiler
T11 sequence (P51813 1-675): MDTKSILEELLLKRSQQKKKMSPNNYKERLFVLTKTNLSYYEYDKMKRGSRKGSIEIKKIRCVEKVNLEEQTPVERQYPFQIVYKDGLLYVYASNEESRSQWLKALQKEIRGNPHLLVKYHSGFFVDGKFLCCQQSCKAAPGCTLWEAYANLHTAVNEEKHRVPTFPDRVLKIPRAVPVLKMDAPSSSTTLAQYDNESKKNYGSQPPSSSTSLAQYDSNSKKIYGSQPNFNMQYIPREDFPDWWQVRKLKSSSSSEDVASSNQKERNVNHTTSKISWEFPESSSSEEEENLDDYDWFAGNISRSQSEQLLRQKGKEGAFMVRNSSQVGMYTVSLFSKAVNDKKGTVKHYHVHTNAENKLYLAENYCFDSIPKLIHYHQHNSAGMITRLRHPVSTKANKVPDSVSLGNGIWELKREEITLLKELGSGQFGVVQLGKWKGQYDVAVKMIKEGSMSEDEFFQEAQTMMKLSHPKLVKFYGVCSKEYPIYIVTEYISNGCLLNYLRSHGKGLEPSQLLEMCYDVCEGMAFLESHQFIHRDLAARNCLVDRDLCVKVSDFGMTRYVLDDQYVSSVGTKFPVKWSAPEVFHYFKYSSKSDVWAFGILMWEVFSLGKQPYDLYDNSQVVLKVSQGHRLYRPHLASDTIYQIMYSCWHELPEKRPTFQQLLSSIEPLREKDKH
Outline: as §1

CK1γ1(h) = biological target: T12, CK1γ1(h) (Homo sapiens, UniProt Q9HCP0); conditions: read-out: residual kinase activity CK1γ1(h)
T12 construct: purchased Eurofins KinaseProfiler
T12 sequence (Q9HCP0 whole entry): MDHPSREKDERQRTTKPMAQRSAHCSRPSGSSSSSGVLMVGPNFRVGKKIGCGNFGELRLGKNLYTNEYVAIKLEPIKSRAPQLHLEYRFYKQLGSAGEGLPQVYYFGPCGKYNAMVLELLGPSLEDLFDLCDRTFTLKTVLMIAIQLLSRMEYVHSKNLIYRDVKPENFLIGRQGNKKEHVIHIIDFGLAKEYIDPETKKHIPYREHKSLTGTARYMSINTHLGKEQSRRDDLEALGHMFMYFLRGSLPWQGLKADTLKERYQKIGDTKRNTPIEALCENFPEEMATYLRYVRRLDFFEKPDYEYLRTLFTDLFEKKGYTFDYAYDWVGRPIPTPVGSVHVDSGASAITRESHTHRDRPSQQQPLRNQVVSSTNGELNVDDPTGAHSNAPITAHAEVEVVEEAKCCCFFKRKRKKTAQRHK
Outline: as §1

Flt3(h) = biological target: T13, Flt3(h) (Homo sapiens, UniProt P36888); conditions: read-out: residual kinase activity Flt3(h)
T13 construct: purchased Eurofins KinaseProfiler
T13 sequence (P36888 27-993): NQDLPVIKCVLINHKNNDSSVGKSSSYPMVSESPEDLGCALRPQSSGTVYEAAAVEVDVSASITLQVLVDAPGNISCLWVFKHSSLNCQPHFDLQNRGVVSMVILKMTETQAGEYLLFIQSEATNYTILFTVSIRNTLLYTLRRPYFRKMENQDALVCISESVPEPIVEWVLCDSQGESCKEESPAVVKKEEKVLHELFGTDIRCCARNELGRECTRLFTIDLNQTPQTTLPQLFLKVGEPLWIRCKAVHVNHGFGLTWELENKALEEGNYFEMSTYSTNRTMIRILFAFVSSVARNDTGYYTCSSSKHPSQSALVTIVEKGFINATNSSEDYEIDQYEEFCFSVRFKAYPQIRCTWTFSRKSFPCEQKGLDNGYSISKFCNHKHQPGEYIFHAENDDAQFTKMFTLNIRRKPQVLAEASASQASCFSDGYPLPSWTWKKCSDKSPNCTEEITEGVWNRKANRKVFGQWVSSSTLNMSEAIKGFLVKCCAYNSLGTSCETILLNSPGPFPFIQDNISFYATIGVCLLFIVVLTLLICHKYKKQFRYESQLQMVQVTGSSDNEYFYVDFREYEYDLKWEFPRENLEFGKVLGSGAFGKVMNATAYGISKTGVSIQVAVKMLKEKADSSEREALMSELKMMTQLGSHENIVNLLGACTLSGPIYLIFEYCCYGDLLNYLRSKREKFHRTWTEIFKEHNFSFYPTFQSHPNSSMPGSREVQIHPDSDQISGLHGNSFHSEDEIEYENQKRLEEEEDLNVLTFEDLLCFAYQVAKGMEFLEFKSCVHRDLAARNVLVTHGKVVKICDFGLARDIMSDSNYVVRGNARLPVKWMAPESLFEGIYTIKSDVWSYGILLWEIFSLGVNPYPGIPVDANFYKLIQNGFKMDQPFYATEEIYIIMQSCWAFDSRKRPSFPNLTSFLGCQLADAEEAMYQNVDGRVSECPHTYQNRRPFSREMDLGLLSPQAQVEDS
Outline: as §1

IR(h), activated = biological target: T14, IR(h), activated (Homo sapiens, UniProt P06213); conditions: 1 µM
T14 construct: purchased Eurofins KinaseProfiler
Outline: as §1

DNA-PK(h) = biological target: T15, DNA-PK(h) (Homo sapiens, UniProt P78527); conditions: read-out: residual kinase activity DNA-PK(h)
T15 construct: purchased Eurofins KinaseProfiler
Outline: as §1

T1 sequence (P51451 whole entry): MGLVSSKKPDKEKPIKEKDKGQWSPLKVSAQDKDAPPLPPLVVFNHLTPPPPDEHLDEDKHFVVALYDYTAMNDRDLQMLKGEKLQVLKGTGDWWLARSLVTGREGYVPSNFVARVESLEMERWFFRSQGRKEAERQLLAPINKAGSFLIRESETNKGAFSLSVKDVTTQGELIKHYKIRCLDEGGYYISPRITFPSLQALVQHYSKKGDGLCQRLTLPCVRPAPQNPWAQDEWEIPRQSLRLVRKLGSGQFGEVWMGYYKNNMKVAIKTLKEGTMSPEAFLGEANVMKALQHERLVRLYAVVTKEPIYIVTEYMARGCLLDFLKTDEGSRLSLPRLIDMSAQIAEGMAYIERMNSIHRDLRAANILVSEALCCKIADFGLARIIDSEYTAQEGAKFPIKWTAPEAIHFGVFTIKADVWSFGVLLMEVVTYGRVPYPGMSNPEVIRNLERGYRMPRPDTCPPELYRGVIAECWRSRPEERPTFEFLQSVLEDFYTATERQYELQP

| SMILES | remaining activity at 1 µM (Blk(h)) [%] | remaining activity at 1 µM (Tie2 (h)) [%] | remaining activity at 1 µM (IGF-1R(h)) [%] | remaining activity at 1 µM (cKit(h)) [%] | remaining activity at 1 µM (Abl(T315I)(h)) [%] | remaining activity at 1 µM (PAK1(h)) [%] | remaining activity at 1 µM (NIM1(h)) [%] | remaining activity at 1 µM (cSRC(h)) [%] | remaining activity at 1 µM [1] [%] | remaining activity at 1 µM (Fms(h)) [%] | remaining activity at 1 µM (Bmx(h)) [%] | remaining activity at 1 µM (CK1γ1(h)) [%] | remaining activity at 1 µM (Flt3(h)) [%] | residual kinase activity IR(h), activated (IR(h), activated) | remaining activity at 1 µM (DNA-PK(h)) [%] |
| --- | --- | --- | --- | --- | --- | --- | --- | --- | --- | --- | --- | --- | --- | --- | --- |
| CONC(=O)c1ccccc1Nc1cc(Nc2cc(C)nn2C(C)C)ncc1Cl [GSK2256098] | 117 | 108 | 115 | 93 | 92 | 91 | 85 | 88 | 83 | 88 | 105 | 99 | 108 | 76 | 98 |
| CNC(=O)c1ccc(Nc2ncc(C(F)(F)F)c(NCc3nccnc3N(C)S(C)(=O)=O)n2)cc1 [VS-6063, Defactinib] | 62 | 82 | 55 | 80 | 44 | 79 | 78 | 72 | 103 | 67 | 47 | 81 | 6 | 30 | 85 |
| CNC(=O)c1cccc(C)c1Nc1nc(Nc2ccc(N3CCN(C4C5CC6CC4CC(O)(C6)C5)CC3)cc2OC)ncc1C(F)(F)F (stereo not drawn) [SJP1602, 2-((2-((4-(4-((2s,5r)-5-hydroxyadamantan-2-yl)piperazin-1-yl)-2-methoxyphenyl)amino)-5-(trifluoromethyl)pyrimidin-4-yl)amino)-N,3-dimethylbenzamide] | 85 | 105 | 116 | 97 | 106 | 119 | 95 | 99 | 104 | 85 | 84 | 105 | 77 | 61 | 98 |
